From US7754758B2, “Pyrrolidine derivatives acting as CCR3-receptor antagonists” (Novartis AG, priority 2004, dated 2010)

Biological target: T1, human CCR-3 (Homo sapiens, UniProt P51677)
T1 construct: expressed in transfected cells; host or cells: rat basophil leukaemia (RBL-2H3) cells, membrane preparation
T1 sequence (P51677 1-355): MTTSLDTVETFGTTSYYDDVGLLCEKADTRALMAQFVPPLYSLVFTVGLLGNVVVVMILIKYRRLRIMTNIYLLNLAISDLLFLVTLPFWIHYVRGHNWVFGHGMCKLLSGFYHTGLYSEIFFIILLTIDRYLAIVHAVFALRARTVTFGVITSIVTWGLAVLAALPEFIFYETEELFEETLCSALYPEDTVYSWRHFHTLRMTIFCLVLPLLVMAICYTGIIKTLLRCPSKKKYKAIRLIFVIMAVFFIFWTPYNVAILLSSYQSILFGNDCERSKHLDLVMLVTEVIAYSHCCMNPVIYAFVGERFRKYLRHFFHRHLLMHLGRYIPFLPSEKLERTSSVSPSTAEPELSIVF
Test: [125I]-human eotaxin binding to CCR-3, SPA assay
Conditions: inhibition of [125I]-human eotaxin binding; membranes of RBL-2H3 cells stably expressing CCR3; 4 hours at room temperature
Description: Recombinant cells expressing human CCR-3 are captured by wheatgerm agglutinin (WGA) polyvinyltoluidene (PVT) SPA beads (available from Amersham), through a specific interaction between the WGA and carbohydrate residues of glycoproteins on the surface of the cells. [^125I]-human eotaxin (available from Amersham) binds specifically to CCR-3 receptors bringing the [^125I]-human eotaxin in close proximity to the SPA beads. Emitted â-particles from the [^125I]-human eotaxin excite, by its proximity, the fluorophore in the beads and produce light.
Preparation of Assay Buffer: 5.96 g HEPES and 7.0 g sodium chloride are dissolved in distilled water and 1 M aqueous CaCl2 (1 ml) and 1M aqueous MgCl2 (5 ml) are added. The pH is adjusted to 7.6 with NaOH and the solution made to a final volume of 1 l using distilled water. 5 g bovine serum albumin and 0.1 g sodium azide are then dissolved in the solution and the resulting buffer stored at 4° C. […]
Preparation of membranes: Confluent rat basophil leukaemia (RBL-2H3) cells stably expressing CCR3 are removed from tissue culture flasks using enzyme-free cell dissociation buffer and resuspended in phosphate-buffered saline. […] The resulting scintillations are counted using a Canberra Packard TopCount, each well being counted for 1 minute. […]

| IC50 | SMILES |
| --- | --- |
| 270 nM | COc1cccc(NC(=O)NCCCN2CCC(Oc3ccc(F)cc3)C2)c1 (centres unmarked) [Example 2, 1-{3-[3-(4-fluorophenoxy)pyrrolidine-1-yl]propyl}-3-(3-methoxyphenyl)-urea] |
| 446 nM | O=C(NCCCN1CCC(Oc2ccc(F)cc2)C1)Nc1ccc(F)c(F)c1 (centres unmarked) [Example 3] |
